In patent US20110160249A1, “5-LIPOXYGENASE-ACTIVATING PROTEIN INHIBITOR” (priority 2008, published 2011):
Several values for one entry are separate records, joined by “and”; a condition that tells them apart may be missing. Equal values may be shown once.

Columns and labels:
CYP2C9 = assay: Cellular Cytochrome P450 induction, CYP2C9; details: tested at 10 μM, cryopreserved human hepatocytes
CYP3A4 = assay: Cellular Cytochrome P450 induction, CYP3A4; details: tested at 10 μM, cryopreserved human hepatocytes
CYP 2C19 = target: T1, CYP 2C19 (Homo sapiens, UniProt P33261); assay: Extracellular Cytochrome P450 inhibition, 2C19; format: in vitro ADME; details: mephenytoin 4′-hydroxylation
T1 construct: from tissue
T1 sequence (P33261 whole entry): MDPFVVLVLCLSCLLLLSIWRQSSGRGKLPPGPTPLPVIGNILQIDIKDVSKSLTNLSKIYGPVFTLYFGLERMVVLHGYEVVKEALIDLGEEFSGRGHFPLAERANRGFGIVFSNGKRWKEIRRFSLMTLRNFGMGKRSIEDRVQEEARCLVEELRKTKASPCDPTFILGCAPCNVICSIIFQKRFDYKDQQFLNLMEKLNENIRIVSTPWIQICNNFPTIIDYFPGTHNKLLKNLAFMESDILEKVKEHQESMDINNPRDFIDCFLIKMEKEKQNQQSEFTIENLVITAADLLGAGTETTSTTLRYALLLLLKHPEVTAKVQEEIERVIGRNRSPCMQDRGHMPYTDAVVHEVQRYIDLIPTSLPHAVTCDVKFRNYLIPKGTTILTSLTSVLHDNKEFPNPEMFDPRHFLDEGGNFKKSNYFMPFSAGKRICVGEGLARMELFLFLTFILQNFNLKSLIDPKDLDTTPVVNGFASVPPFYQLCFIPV
Source text: Final solvent concentrations were 1% (v/v) or less.

[1] = mouse, in vivo, po, 250 mg/kg/day
[2] = Liquid formulations (oral solutions/suspensions); format: physicochemical
Protocol: Values of pH reported were estimated based on pH indicating strips. […] Accordingly, provided in certain embodiments herein were formulations having a pH above about 9, above about 10 or of about 10. In certain embodiments, the formulation was buffered at a pH of about 10. All formulations prepared were sonicated for about 10 minutes.

[3] = Thermodynamic Aqueous Solubility by HPLC; format: physicochemical; details: water, 25° C., 24 hours
Protocol: Aqueous solubility was determined by suspending sufficient compound in water to give a maximum final concentration of ≧10 mg·ml^−1 of the parent free-form of the compound. The suspension was equilibrated at 25° C. for 24 hours then the pH was measured. The suspension was then filtered through a glass fibre C filter into a 96 well plate. The filtrate was then diluted by a factor of 101. Quantitation was by HPLC with reference to a standard solution of approximately 0.1 mg·ml^−1 in DMSO. Different volumes of the standard, diluted and undiluted sample solutions were injected. The solubility was calculated using the peak areas determined by integration of the peak found at the same retention time as the principal peak in the standard injection.
Analysis was performed on an Agilent HP1100 series system equipped with a diode array detector and using ChemStation software vB.02.01-SR1.

LTB4 in Rat Whole Blood = assay: Rat whole blood LTB4 inhibition assay; format: cell-based; details: mean of 5 tests
[4] = system: LTB4 in Human Whole Blood; assay: Human blood LTB4 inhibition assay; format: cell-based; details: mean of 8 tests
Protocol: A non-limiting example of such a human blood LTB4 inhibition assay is as follows: Blood was drawn from consenting, human volunteers into heparinized tubes and 125 μL aliquots added to wells containing 2.5 μL 50% dimethylsulfoxide (vehicle) or 2.5 μL drug in 50% dimethylsulfoxide. Samples were incubated for 15 minutes at 37° C. 2 μL calcium ionophore […] (from a 50 mM dimethylsulfoxide stock diluted just prior to the assay in Flanks balanced salt solution (Invitrogen)) to 1.25 mM) was added, solutions mixed and incubated for 30 minutes at 37° C. Samples were centrifuged at 1,000 rpm (−200×g) for 10 minutes at 4° C., plasma removed and a 1:100 dilution assayed for LTB4 concentration using ELISA (Assay Designs). Drug concentrations to achieve 50% inhibition (IC50's) of vehicle LTB4 were determined by nonlinear regression (Graphpad Prism) of % inhibition versus log drug is concentration.

[5] = pKa and log P of the sodium salt; format: physicochemical
CYP 1A2 = CYP 1A2 (Homo sapiens, UniProt P05177); assay: Extracellular Cytochrome P450 inhibition, 1A2
CYP 1A2, sequence (P05177 whole entry): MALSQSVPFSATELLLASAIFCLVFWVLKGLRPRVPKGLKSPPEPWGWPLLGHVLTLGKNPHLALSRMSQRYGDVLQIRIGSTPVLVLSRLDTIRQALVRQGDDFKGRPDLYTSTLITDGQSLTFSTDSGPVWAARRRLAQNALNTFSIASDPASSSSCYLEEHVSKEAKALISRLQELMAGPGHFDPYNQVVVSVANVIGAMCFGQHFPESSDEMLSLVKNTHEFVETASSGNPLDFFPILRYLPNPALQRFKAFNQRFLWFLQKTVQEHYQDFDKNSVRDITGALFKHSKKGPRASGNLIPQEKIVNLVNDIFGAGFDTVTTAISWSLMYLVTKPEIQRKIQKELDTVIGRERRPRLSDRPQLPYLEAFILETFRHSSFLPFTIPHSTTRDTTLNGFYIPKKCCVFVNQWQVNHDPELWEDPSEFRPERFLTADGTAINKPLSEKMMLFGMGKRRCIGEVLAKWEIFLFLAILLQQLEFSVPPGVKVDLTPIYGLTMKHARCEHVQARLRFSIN
Protocol: Aliquots of this mixture to (89 μL) were delivered to each well of a 96-well polypropylene plate which contained an aliquot of inhibitor (1 μL). Final solvent concentrations were 1% (v/v) or less. Incubations were commenced with the addition of 10 μL β-NADPH (10 mM stock) to a final volume of 100 μL. […] Samples were centrifuged, and supernatant was transferred for LC-MS analysis.

human FLAP = target: T2, human FLAP (Homo sapiens, UniProt P20292); assay: FLAP binding assay; details: individual tests 1-8; read-out: IC50 (nM), Inhibition of FLAP Radioligand Binding
T2 sequence (P20292 1-161): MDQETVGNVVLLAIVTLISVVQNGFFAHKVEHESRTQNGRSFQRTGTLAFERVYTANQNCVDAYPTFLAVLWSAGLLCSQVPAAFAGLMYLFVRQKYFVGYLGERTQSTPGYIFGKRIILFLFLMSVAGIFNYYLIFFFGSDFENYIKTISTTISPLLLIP

CYP 2D6 = target: T3, CYP 2D6 (Homo sapiens, UniProt P10635); assay: Extracellular Cytochrome P450 inhibition, 2D6; format: in vitro ADME; details: dextromethorphan O-demethylation
T3 construct: microsomes were incubated test substrates, which were known to be metabolized by CYP enzymes, with or without Compound 2; from tissue
T3 sequence (P10635 whole entry): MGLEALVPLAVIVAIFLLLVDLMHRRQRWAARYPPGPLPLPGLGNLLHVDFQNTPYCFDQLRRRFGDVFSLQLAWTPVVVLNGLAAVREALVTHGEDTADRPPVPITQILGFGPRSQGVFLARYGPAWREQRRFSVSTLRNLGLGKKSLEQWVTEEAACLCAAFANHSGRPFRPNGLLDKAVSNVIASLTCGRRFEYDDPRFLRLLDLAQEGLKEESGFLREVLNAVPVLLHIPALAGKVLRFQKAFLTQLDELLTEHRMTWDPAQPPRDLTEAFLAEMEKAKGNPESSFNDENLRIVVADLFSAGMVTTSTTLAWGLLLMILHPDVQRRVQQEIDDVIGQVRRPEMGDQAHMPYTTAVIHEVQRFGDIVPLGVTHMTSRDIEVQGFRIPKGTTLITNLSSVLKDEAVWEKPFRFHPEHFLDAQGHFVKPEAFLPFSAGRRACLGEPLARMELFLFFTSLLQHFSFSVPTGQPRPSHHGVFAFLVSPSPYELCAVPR

CCOc1ccc(-c2ccc(Cn3c(CC(C)(C)C(=O)[O-])c(SC(C)(C)C)c4cc(OCc5ccc(C)cn5)ccc43)cc2)cn1.[Na+] [Compound 2, sodium 3-[3-(tert-butylsulfanyl)-1-[4-(6-ethoxy-pyridin-3-yl)benzyl]-5-(5-methyl-pyridin-2-yl-methoxy)-1H-indol-2-yl]-2,2-dimethylpropionate]
induction of CYP2C9 (CYP2C9): No apparent induction
induction of CYP3A4 (CYP3A4): No apparent induction
IC50 (CYP 2C19): > 40000 nM
necropsy, gross abnormalities [1]: no gross abnormalities
Results (liquid formulation) ([2]; 0.010M sodium carbonate buffer, 1% v/v Lutrol and 0.05% splenda, pH 10, ~10 mg/mL): Clear solution
Results (liquid formulation) ([2]; 0.010M sodium carbonate buffer, 2% v/v ethanol and 0.05% splenda, pH 10, 10 mg/mL): Clear solution
Results (liquid formulation) ([2]; 0.010M sodium carbonate buffer, 5% v/v Ethanol and 0.05% splenda, pH 10, ~10 mg/mL): Some undissolved
Results (liquid formulation) ([2]; 0.010M sodium carbonate buffer, 5% v/v Simple syrup, pH 10, 10 mg/mL): Some undissolved
Results (liquid formulation) ([2]; 0.010M sodium carbonate buffer, pH 10, 10 mg/mL): Clear solution
Results (liquid formulation) ([2]; Vehicle 0.5% Methylcellulose, 3.33 mg/mL): Suspension
Concentration of filtrate (as mg/mL of free base) [3]: greater than 10 mg/mL
pH of unfiltered saturated solution [3]: above 9
IC50 (LTB4 in Rat Whole Blood): 239 nM
IC90 (LTB4 in Rat Whole Blood): 1630 nM
IC90 [4]: 1310 nM
pKa [5]: 3.45
IC50 (CYP 1A2): > 40000 nM
IC50 (human FLAP): 4.9 nM and 4.1 nM and 1.8 nM
IC50 (CYP 2D6): > 50000 nM
